This is an account of results in US9040521B2, “Methods and compositions for modulating tau levels” (THE J. DAVID GLADSTONE INSTITUTES, priority 2009, dated 2015).

The subject of assay [1] is six other acetyltransferases (serotonin N-acetyltransferase, pCAF, GCN5, Rtt109, Sas, MOZ). Conditions: C646 at 10 μM, cell-free; cited from earlier work.
The test system of assay [2] is AT8-positive p-tau in primary neurons expressing hTauP301L. The assay is described as follows: p-tau in primary neurons expressing hTauP301L. Type of assay: cell-based. The settings on record: 20 μM, DIV=12. How it is done: (§1) Primary cultures were established from cortices of Sprague-Dawley rat pups (Charles River Laboratories) or SIRT1^F/F mice on postnatal day 0 or 1. Purified cells were plated at 160,000 cells/ml in Neurobasal medium supplemented with B27 (Invitrogen) on poly-ornithine coated plates. All treatments were performed at 7-13 DIV in Neurobasal medium supplemented with N2 (Invitrogen) unless noted otherwise.
Lentivirus was generated, purified, and used for infection as described. Chen et al. (2005) supra. Recombinant lentivirus was produced by co-transfection of the shuttle vector (FUGW), two helper plasmids, delta8.9 packaging vector, and VSV-G envelope vector into 293T cells and purified by ultracentrifugation. Viral titers were measured by p24 enzyme-linked immunosorbent assays at the Gladstone-UCSF Laboratory of Clinical Virology.
Cells or human or mouse brain tissues were lysed in RIPA buffer containing protease inhibitor cocktail (Sigma), 1 mM phenylmethyl sulfonyl fluoride (PMSF) (Sigma), phosphatase inhibitor cocktail (Roche), and HDAC inhibitors, including 5 mM nicotinamide (Sigma) and 1 μM trichostatin A (Sigma). […] Supernatants were collected and analyzed by western blot. Bands in immunoblots were visualized by enhanced chemiluminescence (Pierce) and quantified by densitometry and Quantity One 4.0 software (Bio-Rad, Hercules, Calif.).

A further assay concerns tau transcripts. The assay is described as follows: real-time RT-PCR of tau transcripts in primary neurons. Type of assay: cell-based, rat. The settings on record: treatment for 8 h. How it is done:
as §1

The subject of assay [3] is tau acetylation in primary neurons. The assay is described as follows: western blot of ac-tau, t-tau and p-tau in primary cortical neurons. It counts as cell-based, rat. How it is done: as §1
(§2) Cells or human or mouse brain tissues were lysed in RIPA buffer containing protease inhibitor cocktail (Sigma), 1 mM phenylmethyl sulfonyl fluoride (PMSF) (Sigma), phosphatase inhibitor cocktail (Roche), and HDAC inhibitors, including 5 mM nicotinamide (Sigma) and 1 μM trichostatin A (Sigma). After sonication, lysates from human or mouse brain tissues were centrifuged at 170,000 g at 4° C. for 15 min and at 18,000 g at 4° C. for 10 min. Supernatants were collected and analyzed by western blot. Bands in immunoblots were visualized by enhanced chemiluminescence (Pierce) and quantified by densitometry and Quantity One 4.0 software (Bio-Rad, Hercules, Calif.).

For assay [4], the system named is turnover of endogenous tau in primary neurons. The assay is described as follows: tau turnover in primary neurons treated with cycloheximide. It counts as cell-based, rat. How it is done:
as §1, §2
It was then directly examined whether enhancing acetylation of tau slows the turnover of endogenous tau. Primary neurons were treated with EX527 to enhance tau acetylation and with cycloheximide (CHX) to inhibit translation of new proteins. […] Consistent with this notion, ac-tau appears to be degraded slower than that of t-tau.

The subject of assay [5] is tau ubiquitination in HEK293T cells. The assay is described as follows: in vivo ubiquitination assay in HEK293T cells. It counts as cell-based, human. How it is done:
Procedures were modified from a published study. Oh et al. (2009) Nat Cell Biol 11:295. HEK293T cells were transfected with expression vectors encoding FLAG-tagged human tau and HA-ubiquitin with or without Myc-SIRT1 (wildtype or H363Y mutant). After 2 h of incubation, cells were treated with EX527, resveratrol, or dimethylsulfoxide (DMSO) in Dulbecco's modified Eagle's medium and incubated for 20 h. MG-132 (20 μM) was added and incubated for 4 h. Cells were lysed in ubiquitination buffer (20 mM Tris-HCl, pH 7.5, 0.1 mM EDTA, 0.2% Triton X-100, 150 mM NaCl, and protease inhibitor cocktail). Supernatant proteins were immunoprecipitated with FLAG M2 agarose beads (Sigma) for 3 h at 4° C. Reactions were washed at least three times with ubiquitination buffer and analyzed by SDS-PAGE and western blot with anti-HA antibody (Cell Signaling Technology).

Setting [6] is: EX527 50 μM, rat primary neurons DIV=10.

As to `CC1=NN(c2ccc(C(=O)O)cc2)C(=O)/C1=C\c1ccc(-c2cc(C)c(C)cc2[N+](=O)[O-])o1` [Compound C646], in assay [1], the “inhibition of the six other acetyltransferases” value was below 10%. For the same compound, the AT8-positive p-tau result in assay [2] is “diminished”. Further, in the assay on tau transcripts, the tau transcripts result is reported as “did not suppress”. Besides, in assay [3] (20 μM, 2 h, primary cortical neurons DIV=9), the t-tau levels result is “without affecting”. The levels of t-tau entry in assay [3] (20 μM, 8 h, primary rat cortical neurons) was “remained unchanged”; in assay [3] (20 μM, 20 h, primary cortical neurons) it was “lowered”. Besides, the “tau phosphorylated at serine 202 (AT8-positive p-tau)” value in assay [3] (20 μM, within 2 h, primary cortical neurons) was “abolished”. Further, the ac-tau result in assay [3] (20 μM, within 2 h, primary cortical neurons DIV=9) was “eliminated”. In addition, in assay [3] (20 μM, within 8 h, primary rat cortical neurons), the levels of ac-tau result is “drastically reduced”.
Take `NC(=O)C1CCCc2c1[nH]c1ccc(Cl)cc21` (stereo not shown) [EX527]: in assay [4] (10 μM, CHX, primary neurons), the turnover of ac-tau result is reported as “blocked the turnover”. For the same compound, the accumulation of ac-tau entry in assay [4] (50 μM, CHX, primary neurons) is “more pronounced accumulation”. Moreover, the “half-life of t-tau (tau turnover)” value in assay [4] (10-50 μM, CHX 0-8 h, rat primary neurons DIV=8) is listed as “increased the half-life of t-tau in a dose-dependent manner”. In assay [4] (10-50 μM, CHX, primary neurons), the “degradation of AT8-positive p-tau” value is reported as “blocked the degradation”. In assay [5] (1-50 μM, HEK293T cells), the ac-tau levels entry is reported as “elevated”. For the same compound, in assay [5] (1-50 μM, HEK293T cells, with MG132), the polyubiquitination of tau result is reported as “prevented polyubiquitination of tau in a dose-dependent manner”. Also, in assay [3] (setting [6]), the AT8-positive p-tau result was “markedly increased”, the ac-tau entry is given as “markedly increased”, the “levels of ac-tau relative to t-tau” value was “significantly increased” and the “levels of p-tau relative to t-tau” value is reported as “significantly increased”. Also, the t-tau result in assay [3] (setting [6]) was “markedly increased”.
For the compound `Oc1ccc(C=Cc2cc(O)cc(O)c2)cc1` [resveratrol], the tau ubiquitination entry in assay [5] (HEK293T cells transfected with SIRT1 H363Y mutant) is “not those with H363Y mutant”; in assay [5] (HEK293T cells transfected with wildtype SIRT1), “significantly increased”.
